Data from article PMC10777855, “Pharmacological validation of dihydrofolate reductase as a drug target in Mycobacterium abscessus” (Antimicrobial Agents and Chemotherapy, 2023).

target: T1, M. abscessus DHFR (recombinant) (Mycobacteroides abscessus, UniProt B1MD46); experiment: NADPH absorbance decrease at […] nm (DHFR kit CS0340); format: biochemical; settings: read-out: IC50 (μM) ^ b
T1 construct: gene MAB_3090c; E. coli codon-optimised gene in pET28a (NcoI/XhoI), N-terminal His6-tag, expressed in E. coli BL21(DE3), Ni-NTA purified; tag removal not mentioned
T1 sequence (B1MD46 1-163): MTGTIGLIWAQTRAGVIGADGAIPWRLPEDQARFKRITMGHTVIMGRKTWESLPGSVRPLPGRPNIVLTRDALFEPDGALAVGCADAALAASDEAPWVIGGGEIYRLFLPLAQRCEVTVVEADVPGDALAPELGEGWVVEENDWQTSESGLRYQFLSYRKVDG

First: COc1cc(Cc2cnc(N)nc2N)cc(OC)c1Br [Brodimoprim]
Second: COc1cc(Cc2cnc(N)nc2N)cc(OC)c1OC [Trimethoprim]
The IC50 of the first is 15-fold lower: 1.7 µM for the first, 25 µM for the second.

Compared with `COc1cc(Cc2cnc(N)nc2N)c2c(c1OC)OC(C1CC1)C=C2` (stereo not shown) [Iclaprim], `COCCOc1c(OC)cc(Cc2cnc(N)nc2N)cc1OC` [Tetroxoprim] is 33-fold higher in IC50: 0.6 µM for the first, 20 µM for the second. The first is the more potent here.

First: CN(Cc1cnc2nc(N)nc(N)c2n1)c1ccc(C(=O)N[C@@H](CCC(=O)O)C(=O)O)cc1 [Methotrexate]
Second: C#CCC(Cc1cnc2nc(N)nc(N)c2n1)c1ccc(C(=O)N[C@@H](CCC(=O)O)C(=O)O)cc1 (stereo partly shown) [Pralatrexate]
The IC50 of the first is 13-fold lower: 0.016 µM for the first, 0.21 µM for the second.

First: N#Cc1ccc(Cn2ccc3c4c(N)nc(N)nc4ccc32)cc1 [PQD-1]
Second: COc1cc(NCc2ccc3nc(N)nc(N)c3c2C)cc(OC)c1OC [Trimetrexate]
The IC50 of the first is 2-fold lower: 0.0025 µM for the first, 0.005 µM for the second. The first is the more potent here.

Going from `CCc1nc(N)nc(N)c1-c1ccc(Cl)cc1` [Pyrimethamine] to `CC1(C)N=C(N)N=C(N)N1OCCCOc1cc(Cl)c(Cl)cc1Cl` [WR99210], the IC50 falls from 4.7 µM to 0.016 µM (290-fold). The second is the more potent here.

same assay, conditions: read-out: IC50 ^ b

First: N#Cc1cccc(Cn2ccc3c4c(N)nc(N)nc4ccc32)c1 [PQD-2]
Second: Nc1nc(N)c2c(ccc3c2ccn3Cc2cccc(Cl)c2)n1 [PQD-9]
The IC50 of the first is 8.8-fold lower: 0.0034 µM for the first, 0.03 µM for the second.

`COC(=O)c1ccc(Cn2ccc3c4c(N)nc(N)nc4ccc32)cc1` [PQD-3] and `Nc1nc(N)c2c(ccc3c2ccn3Cc2ccc(F)cc2)n1` [PQD-8] are within 1.5-fold of each other in IC50: 0.015 µM for the first, 0.02 µM for the second.

`Cc1cccc(Cn2ccc3c4c(N)nc(N)nc4ccc32)n1` [PQD-4] and `Cc1ccccc1Cn1ccc2c3c(N)nc(N)nc3ccc21` [PQD-6] are the same in IC50: 0.015 µM for the first, 0.015 µM for the second.

`N#Cc1ccccc1Cn1ccc2c3c(N)nc(N)nc3ccc21` [PQD-5] and `Nc1nc(N)c2c(ccc3c2ccn3Cc2ccc3ccccc3c2)n1` [PQD-7] are within 1.5-fold of each other in IC50: 0.016 µM for the first, 0.015 µM for the second.

In the case of `CC(C)Nc1nc(N)c2c(ccc3c2ccn3Cc2ccc(C(C)C)cc2)n1` [PQD-10], the IC50 is reported as 4.1 µM.
